Tests used:
HMGB1 = biological target: T1, HMGB1 (Homo sapiens, UniProt P09429); test: SPR assay of HMGB1 and C1q binding, including redox states of HMGB1
T1 construct: made in house
T1 sequence (P09429 1-215): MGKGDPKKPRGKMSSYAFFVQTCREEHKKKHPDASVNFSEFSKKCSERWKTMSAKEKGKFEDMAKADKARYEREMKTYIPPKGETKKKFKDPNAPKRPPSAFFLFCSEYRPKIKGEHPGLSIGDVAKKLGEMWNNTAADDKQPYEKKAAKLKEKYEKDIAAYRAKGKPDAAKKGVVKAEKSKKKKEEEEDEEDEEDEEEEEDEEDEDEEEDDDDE
Description: (§1) Surface Plasmon Resonance analysis (SPR): For real-time binding interaction studies, a BIAcore T200 instrument (GE Healthcare) was used. […] A 1:1 mixture of N-hydroxysuccinimide and N-ethyl-N-(dimethyaminopropyl) carbodiimide was used to activate 2 flow-cells of the CMS chip. […] The analytes were diluted in 1×PBS+0.01% (vol/vol) tween-20 buffer. The analytes were sequentially injected at a flow rate of 30 μl/min for 60 s at 25° C. The KD was dertermined using the BIAcore evaluation software 2.0 (GE Healthcare) supposing a 1:1 binding ratio.
A 1:1 mixture of N-hyrdoxysuccinimide and N-ethyl-N-(dimethyaminopropyl) carbodiimide was used to activate 2 flow-cells of the CMS chip. […] The analyte (HMGB1) was diluted in 1×HBS-N+0.05% tween-20 buffer (filtered—0.22 um). Three redox states of HMGB1 were sequentially injected at a flow rate of 20 μl/min for 60 s at 25° C., the dissociation time was set for 3 minutes. The concentration was set at 500 nM.
The analytes were diluted in 1×HBS-N+0.05% tween-20 buffer (filtered—0.22 um). The analytes were sequentially injected at a flow rate of 20 μl/min for 60 s at 25° C. The dissociation time was set for 3 minutes. The KD for each analyte was determined using the Biacore evaluation software 2.0 supposing a 1:1 binding ratio.

human monocytes [1] = test: CpG- or LPS-induced cytokine transcription in monocytes; format: cell-based
Description: Monocyte isolation and stimulation: Human PBMCs were obtained following institutional guidelines of the Feinstein Institute for Medical Research (Feinstein) and isolated from blood of healthy donors by density centrifugation (New York Blood Bank). Monocytes were negatively enriched using a human monocyte enrichment kit (Stem Cell Technology). Purity of monocytes (≥90% CD11b+CD14+LAIR-1+) was determined by flow cytometry. […] Splenic murine monocytes from wild type mice, RAGE deficient or LAIR-1 conditional knockout mice were isolated using EasySep mouse monocyte enrichment kit (Stem Cell Technology). C57BL/6 mice, Lysozyme2-Cre transgenic mice were purchased from Jackson Laboratory. Myeloid specific LAIR-1 conditional knockout mice (Lysozyme2-Cre×LAIR fl/fl) were bred and maintained in our facility (Feinstein) under specific pathogen-free conditions. RAGE deficient mice (Department of Medicine, Karolinska Institute Stockholm, Sweden) were maintained at Feinstein. Eight-to ten weeks old male mice were used for experiments. […]
RT-PCR analysis and primers: Total RNA was extracted from cells (1-2×10^6 cells per sample) with an RNeasy kit (Qiagen, Venlo, Limburg, Netherlands) and cDNA was generated using an iScript cDNA synthesis kit (Bio-Rad laboratories). […] The relative induction was calculated by 2-ΔΔCt.

sRAGE-C1q-HMGB1 complex = biological target: T2, sRAGE-C1q-HMGB1 complex; test: RAGE-C1q-HMGB1 trimolecular complex formation (SPR and C1q-coated beads); format: binding, human; conditions: sRAGE immobilized, C1q 200 nM, HMGB1 500 nM, either order
T2 construct: soluble RAGE (sRAGE) was immobilized on the sensor chip; C1q purified from pooled normal human sera; purchased R&D Systems (hrRAGE); Complement Technology (C1q)
T2 sequence (Q15109 23-342 limits assumed, one chain of several): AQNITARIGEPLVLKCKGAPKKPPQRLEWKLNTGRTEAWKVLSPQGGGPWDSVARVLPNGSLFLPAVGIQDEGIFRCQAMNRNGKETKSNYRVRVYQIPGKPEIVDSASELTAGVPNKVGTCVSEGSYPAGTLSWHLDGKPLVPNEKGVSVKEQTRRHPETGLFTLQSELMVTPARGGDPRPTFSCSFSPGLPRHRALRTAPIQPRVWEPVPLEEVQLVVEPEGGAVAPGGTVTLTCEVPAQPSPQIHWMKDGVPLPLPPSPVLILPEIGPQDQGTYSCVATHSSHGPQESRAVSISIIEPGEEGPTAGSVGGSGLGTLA
T2 sequence (P02745 23-245, one chain of several, further chain): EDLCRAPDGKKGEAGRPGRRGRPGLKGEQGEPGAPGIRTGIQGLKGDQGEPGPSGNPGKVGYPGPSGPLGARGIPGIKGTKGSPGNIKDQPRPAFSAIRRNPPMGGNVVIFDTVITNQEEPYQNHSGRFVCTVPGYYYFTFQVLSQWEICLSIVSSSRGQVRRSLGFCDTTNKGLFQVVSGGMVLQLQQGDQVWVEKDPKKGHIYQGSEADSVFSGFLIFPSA
T2 sequence (P02746 28-253, one chain of several, further chain): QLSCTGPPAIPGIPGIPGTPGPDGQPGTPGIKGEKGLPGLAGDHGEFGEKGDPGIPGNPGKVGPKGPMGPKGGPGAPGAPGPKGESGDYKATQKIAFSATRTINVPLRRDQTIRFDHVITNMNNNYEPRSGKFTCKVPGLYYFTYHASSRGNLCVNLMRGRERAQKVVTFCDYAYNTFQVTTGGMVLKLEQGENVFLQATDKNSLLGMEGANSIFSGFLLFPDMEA
T2 sequence (P02747 29-245, one chain of several, further chain): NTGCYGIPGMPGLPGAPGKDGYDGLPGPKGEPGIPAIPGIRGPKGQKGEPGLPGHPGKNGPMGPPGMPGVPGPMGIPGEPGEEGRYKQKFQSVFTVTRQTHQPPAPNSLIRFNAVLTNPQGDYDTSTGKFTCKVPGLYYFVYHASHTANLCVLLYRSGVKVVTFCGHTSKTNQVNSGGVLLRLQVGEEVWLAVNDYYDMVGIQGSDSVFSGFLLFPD
Description: The dissociation time was set for 1 minute.
Trimolecular complex assay: Biotinylated-C1q (20 μg/ml) was precoated to SpeedBeads™ (Streptavidin-conjugated microbeads, Thermo Scientific). Beads were saturated with HMGB1, then incubated with RAGE.

human monocytes [2] = test: SeaHorse cellular flux assay (OCR, ECAR); format: cell-based; conditions: C1q 25 μg ml-1 together with HMGB1 3 μg/ml, 24 h
Description: Cell metabolism analysis using SeaHorse Cellular Flux assay. […] One hour prior to measurement, culture medium was exchanged for assay medium (unbuffered DMEM (Sigma), supplemented with 10 mM Glucose, 1 mM Pyruvate and 2 mM Glutamine for mitochondrial assays, or with 2 mM Glutamine alone for glycolytic assays. Reagents were injected during the measurement to achieve final concentrations of oligomycin (1 μM), carbonyl cyanide p-(trifluoromethoxy) phenylhydrazone (FCCP) ([…]), Rotenone/antimycin A (0.5 μM). Glucose (10 mM), and 2-Deoxy-D glucose (50 mM). Oxygen consumption rate (OCR) and Extracellular acidification rate (ECAR) values were measured using a SeaHorse XfP instrument (SeaHorse bioscience). Measured values were normalized to the number of live cells present in each well as determined by a trypan blue staining by the end of each run. For OCR/ECAR ratio calculations, an average of the last two basal readings was used for both OCR and ECAR.

RAGE = biological target: T3, RAGE (Homo sapiens, UniProt Q15109); test: SPR assay of C1q and RAGE binding; conditions: read-out: KD of C1q and RAGE binding, 25° C., 1:1 binding ratio supposed
T3 construct: purchased R&D Systems
T3 sequence (Q15109 23-342 limits assumed): as the sequence (Q15109 23-342 limits assumed, one chain of several) above
Description: as §1

[3] = tested on: splenic monocytes of C57BL/6 wild type, RAGE deficient or LAIR-1 deficient mice; test: HMGB1-induced gene transcription in murine splenic monocytes (wild type, RAGE deficient, LAIR-1 deficient); format: cell-based, mouse
Description: Monocyte isolation and stimulation: Human PBMCs were obtained following institutional guidelines of the Feinstein Institute for Medical Research (Feinstein) and isolated from blood of healthy donors by density centrifugation (New York Blood Bank). Monocytes were negatively enriched using a human monocyte enrichment kit (Stem Cell Technology). Purity of monocytes (≥90% CD11b+CD14+LAIR-1+) was determined by flow cytometry. […] Splenic murine monocytes from wild type mice, RAGE deficient or LAIR-1 conditional knockout mice were isolated using EasySep mouse monocyte enrichment kit (Stem Cell Technology). C57BL/6 mice, Lysozyme2-Cre transgenic mice were purchased from Jackson Laboratory. Myeloid specific LAIR-1 conditional knockout mice (Lysozyme2-Cre×LAIR fl/fl) were bred and maintained in our facility (Feinstein) under specific pathogen-free conditions. RAGE deficient mice (Department of Medicine, Karolinska Institute Stockholm, Sweden) were maintained at Feinstein. Eight-to ten weeks old male mice were used for experiments. All animal procedures were approved by the Feinstein Institutional Animal Care and Use Committee.
RT-PCR analysis and primers: Total RNA was extracted from cells (1-2×10^6 cells per sample) with an RNeasy kit (Qiagen, Venlo, Limburg, Netherlands) and cDNA was generated using an iScript cDNA synthesis kit (Bio-Rad laboratories). Real Time-PCR was performed on a Light Cycler 480 II (Roche) using Light Cycler 480 master mix with primers (Applied Biosystems) for IFNα1 (Hs00256882), IFNα7 (mm02525960), MX1 (Hs00182073, mm01217998), IL-6 (Hs00985639, mm99999064), TNFα (Hs00174128, mm00443258), IL-12a (Hs00168405), Mer (Hs01031973), PDL-1 (Hs01125301), IL-10 (Hs00961622), CD163 (Hs00174705), HPRT1 (Hs99999909, mm01545399) and Polr2a (Hs00172187). The genes of interest were normalized to the expression of house keeping genes and were compared to a control condition with no treatment. The relative induction was calculated by 2-ΔΔCt.

[4] = HMGB1 3 μg/ml, C1q 25 μg/ml, 6 h

## C1q: C1q purified from pooled normal human sera, obtained from Complement Technology
HMGB1; disulfide, all thiol, oxidized HMGB1
  binding to different redox states of HMGB1: preferentially binding to the disulfide form of HMGB1
HMGB1; read-out: KD of HMGB1 and C1q binding, 25° C., 1:1 binding ratio supposed
  Kd: 200 nM
Human monocytes [1]; CpG 2216
  CpG-mediated induction of pro-inflammatory cytokines and IFN inducible genes: inhibits CpG-mediated induction of pro-inflammatory cytokines
Human monocytes [1]; LPS
  LPS-induced cytokine transcription: no effect on LPS-induced cytokine transcription
sRAGE-C1q-HMGB1 complex
  trimolecular complex formation with HMGB1 and sRAGE: formed a trimolecular complex
Human monocytes [2]
  HMGB1-induced alteration in cellular metabolism: prevented the alteration in cellular metabolism
RAGE
  Kd: 855 nM
[3]; [4]
  HMGB1-induced gene transcription in RAGE-deficient cells: no change in HMGB1-induced gene transcription
  HMGB1-induced proinflammatory cytokine gene transcription in wild type cells: reduction in HMGB1-induced proinflammatory cytokine gene transcription
[3]; Lysozyme-Cre x floxed LAIR-1 mice
  HMGB1-induced mRNA expression in LAIR-1 deficient monocytes: no inhibitory effect

Reference: patent publication US12037419B2 (The Feinstein Institutes for Medical Research, priority 2016, dated 2024)
